Measured values as given in US12384756B2, “Piperidinedione derivatives” (INNOCURE THERAPEUTICS, INC., priority 2021, dated 2025).

Legend:
CRBN = molecular target: T1, CRBN (Homo sapiens, UniProt Q96SW2); test: NanoBRET intracellular E3 ligase assay, CRBN binding affinity; details: BRET assay, compared with pomalidomide
T1 construct: host or cells: HEK 293T
Method: The binding affinity of the synthesized compounds to CRBN E3 ligase was measured using PROMEGA NANOBRET™ Intracellular E3 ligase Assay, CRBN [cat #N2910]. Bioluminescence resonance energy transfer (BRET) assay is a method that the transfer of luminescence energy of POI into a bound fluorescent tracer is measured. […] Thus, the affinity of a compound to the POI can be measure.
9.0 mg/ml of DDB1 expression vector and 1.0 mg/ml of NanoLuc-CRBN fusion vector were transfected using LIPOFECTAMINE™ 3000.
Then, the cell lines were treated with a compound prepared at various concentrations, and then mixed for 15 seconds. Then, cell walls were broken by using digitonin, and the mixture was reacted for 25 minutes. Then, the mixture was treated with luciferase substrate. The luminescence intensity and the fluorescence intensity were measure at donor emission wavelength (450 nm) and at acceptor emission wavelength (610 nm), and then BRET ratio was calculated and normalized. BRET ratio was calculated by the following formula: BRET ratio: Acceptor/Donor×1000 [4] CRBN Binding Affinity of the Compound

[1] = tested on: Human hematologic cancer cell line [MV-4-11]; test: Anti-proliferative activity (WST-8) of SHP2 targeted PROTAC in MV-4-11; assay type: cell-based; details: MV-4-11, 72 hours; for IC50: Homo sapiens, MV4-11, WST-8, read-out: IC50 of SHP2-targeted PROTAC (cell proliferation)
Method: (§1) Human hematologic cancer cell line [MV-4-11] was cultured in IMDM medium with 10% fetal bovine serum, penicillin [100 U/ml] and streptomycin [[…]]. The synthesized compound was prepared with a stock solution of 10 mM or 50 mM dissolved in DMSO [dimethyl sulfoxide], and it was sequentially diluted to treat the cell line.
The cell survival was calculated by steps of adding in each well […] of water soluble tetrazolium salt (WST-8) which produces formazon in response to dehydrogenase present in the electron transport chain in mitochondria, incubating for 3 hours, measuring the absorbance at 450 nm, and calculating […] PRISM 8.0 software.

SHP2 = molecular target: T2, SHP2 (Homo sapiens, UniProt Q06124); test: SHP2 protein degradation by western blot in MV-4-11 cells; assay type: cell-based; details: MV-4-11, 24 hours; for DC50: 50% inhibition of protein expression, read-out: DC50 of SHP2-targeted PROTAC
T2 construct: SHP2 expressed in cells; endogenous in cells; host or cells: MV-4-11
T2 sequence (Q06124 1-593): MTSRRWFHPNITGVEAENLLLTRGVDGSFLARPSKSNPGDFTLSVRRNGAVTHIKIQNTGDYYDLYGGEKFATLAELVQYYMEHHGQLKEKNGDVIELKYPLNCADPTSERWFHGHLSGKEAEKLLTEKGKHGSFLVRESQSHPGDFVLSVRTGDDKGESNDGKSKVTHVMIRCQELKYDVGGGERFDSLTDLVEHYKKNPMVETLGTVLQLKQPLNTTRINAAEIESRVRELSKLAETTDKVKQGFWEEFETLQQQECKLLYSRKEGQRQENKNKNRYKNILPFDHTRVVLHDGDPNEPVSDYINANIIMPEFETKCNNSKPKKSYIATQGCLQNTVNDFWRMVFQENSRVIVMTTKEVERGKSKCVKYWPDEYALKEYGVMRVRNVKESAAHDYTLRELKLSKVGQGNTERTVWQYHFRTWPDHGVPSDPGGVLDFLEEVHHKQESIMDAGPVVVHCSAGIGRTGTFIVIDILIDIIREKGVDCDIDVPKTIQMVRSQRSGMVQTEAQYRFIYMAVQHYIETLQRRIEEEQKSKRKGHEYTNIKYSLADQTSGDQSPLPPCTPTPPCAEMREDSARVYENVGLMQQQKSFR
Method: as §1
To observe the PROTAC's degradation ability to SHP2 expressed in cells, the cells were aliquoted into a 12 well plate at a concentrations of 3×10^5 cells/well, and then the sample was treated for 24 hours. In order to conduct western blotting assay to confirm protein expression, the cell treated with the compound was treated for 30 minutes with 70 μL of RIPA buffer with wherein protease inhibitor is added. Then, cell lysate was collected on ice using a scraper and centrifuged at 4° C. 15,000 rpm for 30 minutes to obtain a supernatant containing protein. Then, SDS-PAGE is conducted for 10 μg of protein per sample, and the protein is transferred to a membrane. The protein is reacted with antibodies of anti-SHP2 and anti-GAPDH at 4° C. for 16 hours, and then, reacted with the secondary antibodies at room temperature for 1 hour. The protein expression is confirmed using SuperSignal™ West Pico PLUS chemiluminescence substrate and image analyzer. The protein expression inhibition was normalized based on the expression value of GAPDH. The amount of protein expression in each sample was measured based on the sample treated with 0.1% DMSO vehicle which was set to 100%. The amount of protein expression was quantified using the Image J program. The change in the amount of protein expression due to the treatment of compound (DC50: the concentration of compounds where the 50% inhibition of protein expression is achieved) was calculated using GraphicPad Prism 8.0 software.

T1 sequence (Q96SW2 whole entry): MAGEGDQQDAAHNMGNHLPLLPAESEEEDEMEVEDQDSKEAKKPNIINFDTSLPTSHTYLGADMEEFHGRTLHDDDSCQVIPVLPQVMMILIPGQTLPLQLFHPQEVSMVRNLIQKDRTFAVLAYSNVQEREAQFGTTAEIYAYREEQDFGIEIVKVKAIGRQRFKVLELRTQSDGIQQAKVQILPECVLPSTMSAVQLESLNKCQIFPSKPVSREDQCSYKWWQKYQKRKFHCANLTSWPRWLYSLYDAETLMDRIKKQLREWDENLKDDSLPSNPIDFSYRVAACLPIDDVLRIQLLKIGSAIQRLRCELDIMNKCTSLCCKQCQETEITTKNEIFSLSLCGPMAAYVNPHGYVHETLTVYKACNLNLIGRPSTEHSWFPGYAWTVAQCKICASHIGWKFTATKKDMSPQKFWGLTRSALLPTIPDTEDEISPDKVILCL
T1 sequence (Q16531 whole entry partner): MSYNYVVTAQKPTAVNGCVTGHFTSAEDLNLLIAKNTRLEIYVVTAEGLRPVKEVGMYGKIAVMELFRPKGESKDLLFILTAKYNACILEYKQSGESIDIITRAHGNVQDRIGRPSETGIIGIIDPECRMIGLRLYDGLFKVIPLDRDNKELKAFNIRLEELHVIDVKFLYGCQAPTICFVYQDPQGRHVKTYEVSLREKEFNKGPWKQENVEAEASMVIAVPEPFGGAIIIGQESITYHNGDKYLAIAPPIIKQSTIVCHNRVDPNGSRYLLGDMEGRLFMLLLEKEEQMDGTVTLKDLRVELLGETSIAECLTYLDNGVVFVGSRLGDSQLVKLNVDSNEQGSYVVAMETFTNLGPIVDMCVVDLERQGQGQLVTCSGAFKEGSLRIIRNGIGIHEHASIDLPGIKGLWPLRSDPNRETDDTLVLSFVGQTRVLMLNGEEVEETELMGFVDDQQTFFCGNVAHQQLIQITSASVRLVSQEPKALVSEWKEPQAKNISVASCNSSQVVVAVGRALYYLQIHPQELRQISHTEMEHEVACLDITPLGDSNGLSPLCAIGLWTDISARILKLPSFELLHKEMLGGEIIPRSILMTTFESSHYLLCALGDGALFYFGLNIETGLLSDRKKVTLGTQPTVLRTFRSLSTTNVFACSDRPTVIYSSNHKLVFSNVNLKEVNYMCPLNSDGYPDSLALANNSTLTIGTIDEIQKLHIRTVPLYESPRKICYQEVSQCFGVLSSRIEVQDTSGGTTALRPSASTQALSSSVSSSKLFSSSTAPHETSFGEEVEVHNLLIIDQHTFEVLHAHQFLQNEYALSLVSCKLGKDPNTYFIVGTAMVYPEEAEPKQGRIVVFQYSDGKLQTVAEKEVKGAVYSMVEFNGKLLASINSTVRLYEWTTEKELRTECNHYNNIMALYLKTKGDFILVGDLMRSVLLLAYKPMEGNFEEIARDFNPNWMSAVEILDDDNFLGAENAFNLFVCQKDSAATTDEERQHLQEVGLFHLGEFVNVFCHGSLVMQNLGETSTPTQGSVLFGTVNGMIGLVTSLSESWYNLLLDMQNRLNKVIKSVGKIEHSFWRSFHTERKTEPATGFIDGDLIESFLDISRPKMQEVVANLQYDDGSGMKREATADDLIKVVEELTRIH

| SMILES | CRBN binding affinity (in words) (CRBN) | IC50 [1] [nM] | inhibition of cancer cell proliferation (in words) [1] | SHP2 degradation (in words) (SHP2) | DC50 (SHP2) [nM] |
| --- | --- | --- | --- | --- | --- |
| COc1cccc2cnn(C3CCC(=O)NC3=O)c(=O)c12 (stereo not shown) [Ex. 11, 3-(8-methoxy-1-oxophthalazin-2(1H)-yl)piperidine-2,6-dione] | excellent | – | – | – | – |
| C[C@@H]1OCC2(CCN(c3cnc(Sc4cccc(NC(=O)CCC(=O)N5CCN(C(=O)CCOCCOCCOCCOCCNc6cccc7cnn(C8CCC(=O)NC8=O)c(=O)c67)CC5)c4Cl)c(N)n3)CC2)[C@@H]1N (stereo partly drawn) [Example 77, N-(3-((3-amino-5-((3S,4S)-4-amino-3-methyl-2-oxa-8-azaspiro[4.5]decan-8-yl)pyrazin-2-yl)thio)-2-chlorophenyl)-4-(4-(1-((3-(2,6-dioxopiperidin-3-yl)-4-oxo-3,4-dihydrophthalazin-5-yl)amino)-3,6,9,12-tetraoxapentadecan-15-oyl)piperazin-1-yl)-4-oxobutanamide] | – | 685 | inhibited effectively | effectively degraded | 70.2 |
| C[C@@H]1OCC2(CCN(c3cnc(Sc4cccc(NC(=O)CCC(=O)N5CCN(C(=O)CCOCCOCCOCCOCCOCCOCCNc6cccc7cnn(C8CCC(=O)NC8=O)c(=O)c67)CC5)c4Cl)c(N)n3)CC2)[C@@H]1N (stereo partly drawn) [Example 79, N-(3-((3-amino-5-((3S,4S)-4-amino-3-methyl-2-oxa-8-azaspiro[4.5]decan-8-yl)pyrazin-2-yl)thio)-2-chlorophenyl)-4-(4-(1-((3-(2,6-dioxopiperidin-3-yl)-4-oxo-3,4-dihydrophthalazin-5-yl)amino)-3,6,9,12,15,18-hexaoxahenicosane-21-oyl)piperazin-1-yl)-4-oxobutanamide] | – | 337 | inhibited effectively | effectively degraded | 23.6 |
| C[C@@H]1OCC2(CCN(c3cnc(Sc4cccc(NC(=O)CCC(=O)NCCCOCCOCCOCCCNc5ccc6c(=O)n(C7CCC(=O)NC7=O)ncc6c5)c4Cl)c(N)n3)CC2)[C@@H]1N (stereo partly drawn) [Example 73, N1-(3-((3-amino-5-((3S,4S)-4-amino-3-methyl-2-oxa-8-azaspiro[4.5]decan-8-yl)pyrazin-2-yl)thio)-2-chlorophenyl)-N4-(3-(2-(2-(3-((2-(2,6-dioxopiperidin-3-yl)-1-oxo-1,2-dihydrophthalazin-6-yl)amino)propoxy)ethoxy)ethoxy)propyl)succinamide] | – | 507 | inhibited effectively | effectively degraded | 29.9 |
| C[C@@H]1OCC2(CCN(c3cnc(Sc4cccc(NC(=O)CCC(=O)N5CCN(C(=O)CCOCCOCCOCCOCCOCCNc6cccc7cnn(C8CCC(=O)NC8=O)c(=O)c67)CC5)c4Cl)c(N)n3)CC2)[C@@H]1N (stereo partly drawn) [Example 78, N-(3-((3-amino-5-((3S,4S)-4-amino-3-methyl-2-oxa-8-azaspiro[4.5]decan-8-yl)pyrazin-2-yl)thio)-2-chlorophenyl)-4-(4-(1-((3-(2,6-dioxopiperidin-3-yl)-4-oxo-3,4-dihydrophthalazin-5-yl)amino)-3,6,9,12,15-pentaoxaoctadecan-18-oyl)piperazin-1-yl)-4-oxobutanamide] | – | 422 | inhibited effectively | effectively degraded | 24.1 |
| Cc1nn(C2CCC(=O)NC2=O)c(=O)c2c(N)cccc12 (stereo not shown) [Ex. 8, 3-(8-amino-4-methyl-1-oxophthalazin-2(1H)-yl)piperidine-2,6-dione] | excellent | – | – | – | – |
| Cc1nn(C2CCC(=O)NC2=O)c(=O)c2c(F)cccc12 (stereo not shown) [Ex. 7, 3-(8-fluoro-4-methyl-1-oxophthalazin-2(1H)-yl)piperidine-2,6-dione] | excellent | – | – | – | – |
